From patent US20080262053A1 (priority 2005, published 2008)

Assays:
[1] = system: patients with idiopathic RLS; details: continuous treatment over 6 months or more
Method: The severity of the symptoms was determined by means of the difference between the time of randomisation after 6 months and the results after the end of the trial, according to the international RLS scale. The results of 147 patients were evaluated.

[2] = system: patients suffering from moderate to severe RLS
Description: The expression moderate to severe RLS is used when patients reach a points score of >15 on the international RLS scale. The scale runs from 0 (no RLS symptoms) to 40 (severest form of RLS). Thus, in moderate to severe RLS, the symptoms usually occur more than twice a week.

RLS = details: open trials

CCCNC1CCc2nc(N)sc2C1.Cl.Cl (stereo not drawn) [pramipexole, 2-amino-6-n-propylamino-4,5,6,7-tetrahydrobenzo-thiazole dihydrochloride]
effect of continuous treatment on RLS symptoms [1]: lasting improvement in the RLS symptoms | patient-reported improvement in symptoms (quality of sleep, restlessness of the legs, etc.) ([2]; after only one week of treatment): significant improvements in all areas of symptoms | subjective impression of treated patients ([2]; majority of treated patients): great or very great improvement | improvement in the RLS symptoms ([2]; patients with moderate to severe RLS (>15 points on international RLS scale)): rapid improvement in the RLS symptoms | duration of improvement in the symptoms in RLS patients (lasting effect) ([2]; pramipexole administered continuously): at least 6 months | persistence of lasting clinical effects (RLS): ≥ 12 months
